Entries after “also recorded” stand apart in the source; their conditions may differ. Where two headings read alike, the source gives them in different places.
Columns and labels:
[1] = test system: IL-6, IL-12 message in liver; assay: RT-PCR for IL-6 and IL-12 message in livers of mice injected i.v. with ODN; type: in vivo; conditions: mice i.v. 200 μl (1 μg/μl in PBS) of ss or ds ODN; 2.5 hours
[2] = test system: bone marrow derived macrophages (BMDM); assay: IL-6 and IL-12 levels in BMDM culture supernatants by ELISA; type: cell-based, mice
Experimental: Ku70^−/− and Ku80^−/− mice and their wild-type (wt) control on the 129 genetic background were generated by Dr. G. Li and bred at Memorial Sloan-Kettering Cancer Center (MSKCC), New York, N.Y. BMDM from wt, Ku70^−/− and Ku80^−/− mice (MSKCC) were prepared as was previously published (Martin-Orozco et al. (1999) Int. Immunol. 11:1111), and maintained in DMEM with 10% FBS, antibiotics and 20% L-cell medium and cultured for about 10 days to allow them to mature. BMDM were seeded (2.5×10^5/well in triplicate) on 96-well plates and treated with LPS (10 μg/ml), ISS-ODN (5 μg/ml) or M-ODN (5 μg/ml).
BMDM (2.5×10^5/well) from wt, or Ku70^−/− and Ku80^−/− mice were treated with LPS (1 μg/ml), ISS-ODN (5 μg/ml) or M-ODN (5 μg/ml) for 24 hours. IL-6 (A) or IL-12 (B) levels in the supernatants were determined by ELISA. Results are means±S.D, of 5 separate experiments for wt and Ku70^−/− and 3 separate experiments for Ku80^−/− mice. (C) BMDM were incubated with LPS (10 μg/ml) or ISS-ODN (5 μg/ml) for 6.5 hours. Total RNA was isolated and analyzed for the presence of IL-6, IL-12 and GAPDH messages by a Northern blot assay, as described in Example 1. Results are means±S.D. of 5 separate experiments for wt and Ku70^−/− and 3 separate experiments for Ku80^−/− mice.
DNA-PKcs^−/− and their wt control mice on the 129 genetic background were generated by Dr. G. C. Li and bred at Memorial Sloan-Kettering Cancer Center, New York, N.Y. IKKβ^−/− Tnfr1^−/− mice were generated by Drs. Z-W Li and Karin M. ATM^−/− mice on the C57BL/6 background were generated and bred by Dr. Y. Xu (UCSD) as was previously described (Xu et al.(1996) Genes Dev. 10:2411-2422) while their wild-type (wt) control were purchased from Jackson Laboratories (Bar Harbor, Me.). BMDMs from wt, DNA-PKcs^−/− mice, IKKβ^−/− Tnfr1^−/− and ATM^−/− mice were prepared as was previously published (Martin-Orozco et al. (1999) Intl. Immunol. 11:1111-1118), maintained in DMEM with 10% FBS, antibiotics and 20% L-cell medium and cultured for 7-10 days to allow them to mature. Prior to use BMDM were seeded (2.5×10^5/well in triplicate) in 96-well plates and than treated with LPS (1 μg/ml), ISS-ODN (5 μg/ml) or M-ODN (5 μg/ml), po-ISS-ODN (10 μg/ml) or po-ds-ISS-ODN (10 μg/ml), LPS-free, ultra pure bacterial DNA (E. coli, Sigma) (15 μg/ml) or methylated bacterial DNA or LPS-free, ultra pure calf thymus DNA (Sigma) (15 μg/ml). Methylation of bacterial DNA was performed by SssI methylase (Biolab, Boston, Mass.) (15 μg/ml) following manufacturer's instruction. Where indicated the PI3K inhibitor wortmannin (Wm), at various concentrations, was added to ISS-ODN or LPS stimulated BMDMs. After 24 hours in culture, the supernatants were collected and assayed for IL-6 and IL-12 levels by ELISA kits (PharMingen, San Diego, Calif.).

[3] = test system: NF-κB; assay: NF-κB activation in treated BMDM (EMSA); type: cell-based, mice
Experimental: (§1) The ODNs (ps-ss) used include an ISS-ODN with an active CpG motif (AACGTT), a methylated ISS-ODN at the ^5C of the CpG dinucleotide (AA*CGTT) and various control ODNs. These ODNs were incubated at concentrations of 0, 0.1, 0.3, or 1 ng/reaction. The po-ISS-ODN was incubated at concentration of 20, 50 or 100 ng/reaction. The po-ds-ISS-ODN was incubated at concentration of 0, 0.5, 1, 2, 5 or 10 ng/reaction. The bacterial or calf thymus DNAs were each incubated at concentration of 1, 2 or 5 ng/reaction. Electrophoretic gel mobility shift assay (EMSA) was performed as previously described. Chu et al. (1999) Immunity 11:721-731; and Li et al., 1999, supra). In vitro IKK kinase assays were performed using purified IKK derived from Sf9 insect cell lysates as was previously described. Zandi et al. (1998) Science 281:1360-1363.

[4] = test system: IKKβ; assay: In vitro IKK kinase assay: recombinant IKKβ incubated with DNA-PK with or without ISS-ODN; type: biochemical
Experimental: as §1
To explore a role of ISS-activated DNA-PK in IKK activation we tested whether affinity-purified DNA-PK can directly activate recombinant IKKα or IKKβ purified from Sf9 cells (Zandi et al., 1998, supra). […] Furthermore, although DNA-PKcs phosphorylated IκBα that activity was considerably lower than that achieved by IKKβ plus DNA-PK. […] To further confirm the activation of IKKβ by DNA-PK, we performed a coupled-kinase assay. Recombinant IKKβ was pre-incubated with DNA-PK in the presence or absence of ISS-ODN followed by immunoprecipitation of IKKβ and IκB kinase activity was measured. […] We next determined whether DNA-PK phosphorylates IKKβ.

[5] = test system: IKKα; assay: In vitro IKK kinase assay: recombinant IKKα incubated with DNA-PK with ISS-ODN; type: biochemical; conditions: IKKα incubated with DNA-PK in the presence of ISS-ODN; not beyond DNA-PK alone
Experimental: as §1
To explore a role of ISS-activated DNA-PK in IKK activation we tested whether affinity-purified DNA-PK can directly activate recombinant IKKα or IKKβ purified from Sf9 cells (Zandi et al., 1998, supra). […] Furthermore, although DNA-PKcs phosphorylated IκBα that activity was considerably lower than that achieved by IKKβ plus DNA-PK. […] Recombinant IKKβ was pre-incubated with DNA-PK in the presence or absence of ISS-ODN followed by immunoprecipitation of IKKβ and IκB kinase activity was measured. […] We next determined whether DNA-PK phosphorylates IKKβ.

[6] = test system: bone marrow derived macrophages (BMDM); conditions: Martin-Orozco et al. (1999); cited from earlier work

5′-TGACTGTGAACGTTCGAGATGA-3′ [ISS-ODN]
IL-6 and IL-12 message in liver (RT-PCR) [1]: readily detected; also recorded: cytokine induction | IL-6 and IL-12 induction ([2]; ATM-deficient BMDM): normal induction | IL-6 and IL-12 induction ([2]; DNA-PKcs-deficient BMDM in comparison to wt): Very low levels | IL-6 and IL-12 induction ([2]; IKKβ-/- Tnfr-/- BMDM): significantly reduced | IL-6 and IL-12 secretion ([2]; Ku70-/- and Ku80-/- BMDM as compared to wt, 24 hours): very low levels | NF-κB activation, wt vs ATM-deficient BMDM ([3]; ATM-deficient BMDM): no differences were observed | NF-κB activation ([3]; DNA-PKcs-/- BMDM): impaired NF-κB activation | NF-κB activation ([3]; IKKβ-/- Tnfr-/- BMDM (absence of IKKβ)): prevented | phosphorylation of catalytically inactive IKKβ (KA) by DNA-PK ([4]; incubated with ISS-ODN): phosphorylated | activation of IKKβ by DNA-PK, coupled-kinase assay ([4]; pre-incubation with DNA-PK with or without ISS-ODN, then immunoprecipitation of IKKβ): only activates IKKβ in the presence of ISS-ODN | kinase activity of IKKβ measured by IκB phosphorylation ([4]; recombinant IKKβ incubated with DNA-PK in the presence of ISS-ODN): further increased | IκB kinase activity of IKKα [5]: Only a small enhancement | IL-6 and IL-12 secretion [6]: high levels
